According to ChEMBL document CHEMBL3259703, “Synthesis and preliminary biological evaluation of 1,2,3-triazole-Jaspine B hybrids as potential cytotoxic agents” (Eur J Med Chem, 2014):

Assays:
MCF7 [1] = assay: Cell cycle arrest in human MCF7 cells assessed as accumulation at G0/G1 phase at 2 uM after 8 hrs using propidium iodide staining by flow cytometry (reference value: 47.36 %); assay type: functional
MCF7 [2] = assay: Cell cycle arrest in human MCF7 cells assessed as accumulation at G0/G1 phase at 2 uM after 16 hrs using propidium iodide staining by flow cytometry (reference value: 46.01 %); assay type: functional
MCF7 [3] = assay: Cell cycle arrest in human MCF7 cells assessed as accumulation at G0/G1 phase at 4 uM after 8 hrs using propidium iodide staining by flow cytometry (reference value: 47.36 %); assay type: functional
MCF7 [4] = assay: Induction of apoptosis in human MCF7 cells assessed as necrotic cells at 2 uM after 16 hrs using Annexin V/PI double staining by flow cytometry (reference value: 0.7 %); assay type: functional
MCF7 [5] = assay: Cell cycle arrest in human MCF7 cells assessed as accumulation at G2/M phase at 8 uM after 16 hrs using propidium iodide staining by flow cytometry (reference value: 20.08 %); assay type: functional
MCF7 [6] = assay: Cell cycle arrest in human MCF7 cells assessed as accumulation at S phase at 4 uM after 16 hrs using propidium iodide staining by flow cytometry (reference value: 30.05 %); assay type: functional
MCF7 [7] = assay: Induction of apoptosis in human MCF7 cells assessed as necrotic cells at 2 uM after 8 hrs using Annexin V/PI double staining by flow cytometry (reference value: 0.6 %); assay type: functional
MCF7 [8] = assay: Cell cycle arrest in human MCF7 cells assessed as accumulation at S phase at 4 uM after 8 hrs using propidium iodide staining by flow cytometry (reference value: 33.03 %); assay type: functional
MCF7 [9] = assay: Induction of apoptosis in human MCF7 cells assessed as late apoptotic cells at 4 uM after 16 hrs using Annexin V/PI double staining by flow cytometry (reference value: 0.7 %); assay type: functional
MCF7 [10] = assay: Antiproliferative activity against human MCF7 cells after 48 hrs by MTT assay; assay type: functional, cell-based; conditions: MCF7, 48 h
MCF7 [11] = assay: Induction of apoptosis in human MCF7 cells assessed as early apoptotic cells at 8 uM after 16 hrs using Annexin V/PI double staining by flow cytometry (reference value: 11.1 %); assay type: functional
MCF7 [12] = assay: Induction of apoptosis in human MCF7 cells assessed as late apoptotic cells at 2 uM after 8 hrs using Annexin V/PI double staining by flow cytometry (reference value: 6.8 %); assay type: functional
MCF7 [13] = assay: Cell cycle arrest in human MCF7 cells assessed as accumulation at G0/G1 phase at 8 uM after 8 hrs using propidium iodide staining by flow cytometry (reference value: 47.36 %); assay type: functional
MCF7 [14] = assay: Induction of apoptosis in human MCF7 cells assessed as viable cells at 2 uM after 16 hrs using Annexin V/PI double staining by flow cytometry (reference value: 87.5 %); assay type: functional; conditions: MCF7, 16 h, read-out: Activity
MCF7 [15] = assay: Cell cycle arrest in human MCF7 cells assessed as accumulation at G0/G1 phase at 8 uM after 16 hrs using propidium iodide staining by flow cytometry (reference value: 46.01 %); assay type: functional
MCF7 [16] = assay: Induction of apoptosis in human MCF7 cells assessed as viable cells at 4 uM after 8 hrs using Annexin V/PI double staining by flow cytometry (reference value: 84.3 %); assay type: functional; conditions: MCF7, 8 h, read-out: Activity
MCF7 [17] = assay: Induction of apoptosis in human MCF7 cells assessed as late apoptotic cells at 2 uM after 16 hrs using Annexin V/PI double staining by flow cytometry (reference value: 0.7 %); assay type: functional
[18] = Ratio of IC50 Jaspine B to compound IC50 for human EC9706 cells after 48 hrs by MTT assay; assay type: functional
MCF7 [19] = assay: Induction of apoptosis in human MCF7 cells assessed as viable cells at 4 uM after 16 hrs using Annexin V/PI double staining by flow cytometry (reference value: 87.5 %); assay type: functional; conditions: MCF7, 16 h, read-out: Activity
MCF7 [20] = assay: Induction of apoptosis in human MCF7 cells assessed as early apoptotic cells at 2 uM after 16 hrs using Annexin V/PI double staining by flow cytometry (reference value: 11.1 %); assay type: functional
MCF7 [21] = assay: Cell cycle arrest in human MCF7 cells assessed as accumulation at S phase at 8 uM after 8 hrs using propidium iodide staining by flow cytometry (reference value: 33.03 %); assay type: functional
MCF7 [22] = assay: Induction of apoptosis in human MCF7 cells assessed as early apoptotic cells at 8 uM after 8 hrs using Annexin V/PI double staining by flow cytometry (reference value: 8.2 %); assay type: functional
MCF7 [23] = assay: Ratio of IC50 Jaspine B to compound IC50 for human MCF7 cells after 48 hrs by MTT assay; assay type: functional
MCF7 [24] = assay: Cell cycle arrest in human MCF7 cells assessed as accumulation at S phase at 2 uM after 16 hrs using propidium iodide staining by flow cytometry (reference value: 30.05 %); assay type: functional
MCF7 [25] = assay: Induction of apoptosis in human MCF7 cells assessed as viable cells at 8 uM after 8 hrs using Annexin V/PI double staining by flow cytometry (reference value: 84.3 %); assay type: functional; conditions: MCF7, 8 h, read-out: Activity
MCF7 [26] = assay: Induction of apoptosis in human MCF7 cells assessed as late apoptotic cells at 4 uM after 8 hrs using Annexin V/PI double staining by flow cytometry (reference value: 6.8 %); assay type: functional
[27] = Antiproliferative activity against human EC9706 cells after 48 hrs by MTT assay; assay type: functional, cell-based; conditions: EC9706, 48 h
MGC-803 = assay: Ratio of IC50 Jaspine B to compound IC50 for human MGC803 cells after 48 hrs by MTT assay; assay type: functional
MCF7 [28] = assay: Cell cycle arrest in human MCF7 cells assessed as accumulation at S phase at 2 uM after 8 hrs using propidium iodide staining by flow cytometry (reference value: 33.03 %); assay type: functional
MCF7 [29] = assay: Induction of apoptosis in human MCF7 cells assessed as late apoptotic cells at 8 uM after 16 hrs using Annexin V/PI double staining by flow cytometry (reference value: 0.7 %); assay type: functional
MCF7 [30] = assay: Cell cycle arrest in human MCF7 cells assessed as accumulation at S phase at 8 uM after 16 hrs using propidium iodide staining by flow cytometry (reference value: 30.05 %); assay type: functional
MCF7 [31] = assay: Induction of apoptosis in human MCF7 cells assessed as late apoptotic cells at 8 uM after 8 hrs using Annexin V/PI double staining by flow cytometry (reference value: 6.8 %); assay type: functional
MCF7 [32] = assay: Induction of apoptosis in human MCF7 cells assessed as viable cells at 8 uM after 16 hrs using Annexin V/PI double staining by flow cytometry (reference value: 87.5 %); assay type: functional; conditions: MCF7, 16 h, read-out: Activity
MCF7 [33] = assay: Cell cycle arrest in human MCF7 cells assessed as accumulation at G2/M phase at 8 uM after 8 hrs using propidium iodide staining by flow cytometry (reference value: 19.35 %); assay type: functional
MCF7 [34] = assay: Induction of apoptosis in human MCF7 cells assessed as necrotic cells at 4 uM after 16 hrs using Annexin V/PI double staining by flow cytometry (reference value: 0.7 %); assay type: functional
MCF7 [35] = assay: Induction of apoptosis in human MCF7 cells assessed as early apoptotic cells at 2 uM after 8 hrs using Annexin V/PI double staining by flow cytometry (reference value: 8.2 %); assay type: functional
MCF7 [36] = assay: Induction of apoptosis in human MCF7 cells assessed as necrotic cells at 8 uM after 16 hrs using Annexin V/PI double staining by flow cytometry (reference value: 0.7 %); assay type: functional

Molecule `CCCCCCCCCCCCCCCCCCn1cc(COC[C@@H]2OC[C@H](N)[C@H]2O)nn1` has an Activity (MCF7 [1]) of 42.27%, an Activity (MCF7 [2]) of 48.63% and an Activity (MCF7 [3]) of 33.13%. It also gave an Activity (MCF7 [4]) of 4.9%, an Activity (MCF7 [5]) of 47.4% and an Activity (MCF7 [6]) of 17.16%. For the same molecule, the Activity (MCF7 [7]) was 1.2%, the Activity (MCF7 [8]) was 28.66% and the Activity (MCF7 [9]) was 11.6%. For the same molecule, the IC50 (MCF7 [10]) was 1.93 µM, the Activity (MCF7 [11]) was 57.9% and the Activity (MCF7 [12]) was 5.9%. For the same molecule, the Activity (MCF7 [13]) was 19.11%, the viability at 2 µM (MCF7 [14]) was 58.5% and the Activity (MCF7 [15]) was 25.7%. The viability at 4 µM (MCF7 [16]) was 71.5%, the Activity (MCF7 [17]) was 5.1% and the “Ratio IC50” value [18] was 2. It also gave a viability at 4 µM (MCF7 [19]) of 38.2%, an Activity (MCF7 [20]) of 31.4% and an Activity (MCF7 [21]) of 36.69%. The Activity (MCF7 [22]) was 23.8%, the “Ratio IC50” value (MCF7 [23]) was 2 and the Activity (MCF7 [24]) was 20.04%. The viability at 8 µM (MCF7 [25]) was 56.3%, the Activity (MCF7 [26]) was 14.1% and the IC50 [27] was 2.29 µM. The “Ratio IC50” value (MGC-803) was 2, the Activity (MCF7 [28]) was 29.66% and the Activity (MCF7 [29]) was 12.5%. For the same molecule, the Activity (MCF7 [30]) was 23.53%, the Activity (MCF7 [31]) was 18.6% and the viability at 8 µM (MCF7 [32]) was 24%. It also gave an Activity (MCF7 [33]) of 39.13%, an Activity (MCF7 [34]) of 5.2% and an Activity (MCF7 [35]) of 12%. For the same molecule, the Activity (MCF7 [36]) was 5.5%.
